According to paper PMC10778976, “BAY-3827 and SBI-0206965: Potent AMPK Inhibitors That Paradoxically Increase Thr172 Phosphorylation” (International Journal of Molecular Sciences, 2023):
Values belong to the compound of their own block, whether it stands above or below them.

Experiments:
purified rat liver AMPK = experiment: Allosteric activation of rat liver AMPK by AMP with and without BAY-3827; type: biochemical
Excerpt: (§1) AMPK assays measured the transfer of radioactivity from labelled ATP to a peptide substrate, which was separated from unreacted ATP by binding to P81 paper. This assay was described previously, except that we used [γ-^33P]ATP rather than [γ-^32P]ATP. The peptide substrate was the AMARA peptide in all experiments other than one, which analyzed allosteric activation by AMP (Figure 2A), when, for technical reasons, the SAMS peptide was used instead. With purified preparations of AMPK, it was assayed in solution, but for assays in cell lysates (Figure 3D and Figure 4D), it was first immunoprecipitated using a mixture of anti-α1 and -α2 antibodies and assayed in resuspended immunoprecipitates. After the initial immunoprecipitation of lysate containing 80 µg of protein, the pellets were washed twice with 1 mL of high salt IP buffer (50 mM Tris-HCL, pH 7.4 at 4 °C, 1 M NaCl, 1 mM EDTA, 1 mM EGTA, 50 mM NaF, 5 mM Na pyrophosphate, 1 mM dithiothreitol, 0.1% (v/v) Triton X-100) and twice with 1 mL of low salt IP buffer (as above but only 150 mM NaCl), followed by a final wash in 1 mL of assay buffer (50 mM Na Hepes, pH7.4, 150 mM NaCl, 1 mM dithiothreitol, 0.02% (v/v) Brij-35). After each wash, the pellet was recovered via centrifugation (16,000× g, 3 min) and then resuspended. The final resuspended pellets from each biological replicate were divided into two aliquots (40 µg lysate protein) to provide technical replicates and assayed as above.

[1] = tested on: endogenous AMPK from HEK-293 cells; experiment: Activation of dephosphorylated immunoprecipitated AMPK by the LKB1 complex; type: biochemical, human; conditions: 200 µM
Experimental: AMPK was immunoprecipitated from HEK-293 cell lysate (2.5 mg protein) using a mixture of anti-α1 and -α2 antibodies. After extensive washing, it was incubated in a shaking incubator at 30 °C for 20 min in Hepes buffer with 50 mM MgCl2 and sufficient PPM1A to yield about 90% inactivation (total volume of 250 µL). The reaction was terminated by adding 1 mL of IP buffer and, after additional washing in the same buffer, aliquots equivalent to 80 µg of lysate protein were incubated in a shaking incubator at 30 °C for 10 min in Hepes buffer with […] and 5 mM MgCl2, with or without a limiting amount of LKB1:STRADα:MO25α complex (0.5 µg) in the presence or absence of 200 µM AMP or the indicated concentration of BAY-3827 or SBI-0206965 (total volume of 50 µL). The reaction was terminated by adding 1 mL of IP buffer and, after additional washing in the same buffer and a final wash into Hepes buffer, AMPK activity was determined using kinase assays as above.

[2] = tested on: endogenous AMPK from HEK-293 cells; experiment: Protection of immunoprecipitated AMPK against inactivation by PP2Cα (PPM1A); type: biochemical, human; conditions: 200 µM
Experimental: AMPK was immunoprecipitated from HEK-293 cell lysate (2.5 mg of lysate protein) using a mixture of anti-α1 and -α2 antibodies. After extensive washing as in Section 4.5, aliquots equivalent to 80 µg of lysate protein were incubated in a shaking incubator at 30 °C for 10 min in Hepes buffer (50 mM Na Hepes, pH 7.4, 150 mM NaCl, 1 mM dithiothreitol, 0.02% (w/v) Brij-35) with 50 mM MgCl2 and sufficient PPM1A to yield about 80% inactivation, in the presence or absence of 200 µM AMP or the indicated concentration of BAY-3827 or SBI-0206965 (total volume 50 µL). The reaction was terminated by adding 1 mL of IP buffer (50 mM Tris/HCl, pH 7.4 at room temperature, 150 mM NaCl, 1 mM EDTA, 1 mM EGTA, 5 mM Na pyrophosphate, 50 mM NaF, 1 mM dithiothreitol, 0.1% (v/v) Triton X-100) and, after additional washing in the same buffer and a final wash into Hepes buffer, AMPK activity was determined using kinase assays as above.

[3] = tested on: acetyl-CoA carboxylase (ACC, Ser80) phosphorylation in U2OS cells; experiment: ACC phosphorylation in U2OS cells (Western blot); type: cell-based, human; conditions: 3 µM
Experimental: (§2) T-Rex U2OS cells carrying a Flp Recombinase Target (FRT) site were generated as described previously and grown in Dulbecco’s Modified Eagle’s Medium (DMEM) supplemented with 10% (v/v) FBS and 1% (v/v) penicillin/streptomycin.
(§3) Cells were lysed rapidly in situ on culture plates using ice-cold lysis medium containing phosphatase inhibitors, as described previously.
(§4) SDS-PAGE was performed using precast NuPAGE Tris-acetate 3–8% gradient polyacrylamide gels in Tris-acetate running buffer when analyzing ACC, GBF1, or Raptor, or NuPAGE Bis-Tris 4–12% gradient polyacrylamide gels in the MOPS buffer system (ThermoFisher Scientific, Waltham, MA, USA) for other proteins (unless stated otherwise). Proteins were transferred to nitrocellulose membranes using the iBlot 2 system (ThermoFisher Scientific). Membranes were enhanced if necessary using SuperSignal Western Blot Enhancer (ThermoFisher Scientific), then blocked for 1 h in Li-Cor Odyssey blocking buffer. The membranes were probed with the appropriate primary antibody ([…]) overnight at 4 °C. Detection was performed using secondary antibody or streptavidin probe (for total ACC) coupled to IR 680 or IR 800 dye, and the membranes were scanned using the LICOR Odyssey IR imager. Protein concentrations were determined by Coomassie Blue binding with bovine serum albumin as a standard. The cellular levels of AMP and ATP were determined via direct perchloric acid extraction from cells, with LC:MS used to estimate the levels of each nucleotide.

[4] = tested on: human AMPK (α2β1γ1 complex); conditions: control compound; cited from earlier work
[5] = tested on: Raptor (Ser792) phosphorylation in U2OS cells; experiment: Raptor phosphorylation in U2OS cells (Western blot); type: cell-based, human; conditions: 3 µM
Experimental: as §2, §3, §4

[6] = tested on: GBF1 (Thr1337) phosphorylation in U2OS cells; experiment: GBF1 phosphorylation in U2OS cells (Western blot); type: cell-based, human; conditions: 3 µM
Experimental: as §2, §3, §4

AMPK = target: AMPK; design: method as in PMID 28625738; conditions: read-out: Ki, competitive with ATP; cited from earlier work
110 kinases = tested on: 110 kinases; design: method as in ref 27 = [27]; 27. International Centre for Kinase Profiling Kinase Profiling Inhibitor Database Available online: https://www.kinase-screen.mrc.ac.uk/kinase-inhibitors (accessed on 14 November 2023); conditions: 10 µM, screen of 110 kinases; cited from earlier work
71 kinases = tested on: 71 kinases; design: method as in PMID 17850214; conditions: 1 µM, screen against 71 kinases; cited from earlier work
[7] = target: T1, “naïve” (unphosphorylated), bacterially expressed human α1β1γ1 complex (Homo sapiens, UniProt Q13131+Q9Y478); experiment: Allosteric activation of naïve (unphosphorylated) α1β1γ1 complex by MK-8722 with and without BAY-3827; type: biochemical
T1 construct: (His)6
T1 sequence (Q13131 whole entry): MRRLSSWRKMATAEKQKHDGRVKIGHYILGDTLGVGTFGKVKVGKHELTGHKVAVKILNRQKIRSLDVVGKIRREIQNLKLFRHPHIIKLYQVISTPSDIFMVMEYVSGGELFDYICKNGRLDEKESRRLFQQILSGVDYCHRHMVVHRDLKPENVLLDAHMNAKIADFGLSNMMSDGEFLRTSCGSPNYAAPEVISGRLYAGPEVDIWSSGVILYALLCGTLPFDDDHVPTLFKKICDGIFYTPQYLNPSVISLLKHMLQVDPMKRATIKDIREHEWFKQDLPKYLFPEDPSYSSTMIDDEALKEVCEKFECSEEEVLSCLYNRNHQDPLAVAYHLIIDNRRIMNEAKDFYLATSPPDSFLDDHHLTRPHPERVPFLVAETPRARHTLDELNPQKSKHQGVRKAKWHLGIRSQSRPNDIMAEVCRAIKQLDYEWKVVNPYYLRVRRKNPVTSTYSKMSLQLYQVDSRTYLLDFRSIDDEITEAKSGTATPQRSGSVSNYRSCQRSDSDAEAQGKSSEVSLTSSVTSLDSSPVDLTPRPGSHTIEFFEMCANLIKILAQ
T1 sequence (Q9Y478 2-270): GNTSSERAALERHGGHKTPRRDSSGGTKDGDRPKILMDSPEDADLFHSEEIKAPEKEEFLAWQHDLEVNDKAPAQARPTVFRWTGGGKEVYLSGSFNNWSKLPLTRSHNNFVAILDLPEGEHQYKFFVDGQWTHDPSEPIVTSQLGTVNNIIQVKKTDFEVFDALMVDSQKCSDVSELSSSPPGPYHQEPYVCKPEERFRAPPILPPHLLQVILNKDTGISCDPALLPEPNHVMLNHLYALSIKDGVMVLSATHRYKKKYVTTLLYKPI
T1 sequence (P54619 whole entry partner): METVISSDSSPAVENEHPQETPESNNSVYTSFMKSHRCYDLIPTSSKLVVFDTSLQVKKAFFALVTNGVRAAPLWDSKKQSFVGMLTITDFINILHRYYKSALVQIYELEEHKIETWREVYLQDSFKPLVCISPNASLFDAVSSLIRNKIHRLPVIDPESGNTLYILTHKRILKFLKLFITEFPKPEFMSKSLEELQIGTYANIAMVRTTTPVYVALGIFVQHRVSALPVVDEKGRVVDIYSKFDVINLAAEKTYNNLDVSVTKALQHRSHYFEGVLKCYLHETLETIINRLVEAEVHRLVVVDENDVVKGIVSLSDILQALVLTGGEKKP
Excerpt: as §1

[8] = in the presence of 30 nM BAY-3827

EC50 (purified rat liver AMPK; without BAY-3827): 5.9 µM | IC50 (purified rat liver AMPK; without BAY-3827, read-out: IC50 for inhibition by high AMP): 1800 µM
Compound: Nc1ncnc2c1ncn2[C@@H]1O[C@H](COP(=O)(O)O)[C@@H](O)[C@H]1O [AMP]
maximal activation by AMP (purified rat liver AMPK; [8]): 2.7 fold | maximal activation by AMP (purified rat liver AMPK; without BAY-3827): 2.9 fold | promotion of activation by LKB1 [1]: > 2 fold | protection against inactivation by PPM1A [2]: substantial protection

Compound: CC1=C(C#N)C(c2ccc3c(c2)c(NC(=O)c2ccccc2C)nn3C)C(C#N)=C(C)N1 [BAY-974]
elimination of MK-8722-stimulated ACC phosphorylation [3]: not | inhibition of AMPK [4]: did not inhibit | elimination of MK-8722-stimulated Raptor phosphorylation [5]: not | elimination of MK-8722-stimulated GBF1 phosphorylation [6]: not

Compound: CN(C)S(=O)(=O)c1ccc2c(c1)/C(=C/c1cc3c([nH]1)CCCC3)C(=O)N2 [SU6656]
Ki (AMPK): 0.17 µM

Compound: c1cc(-c2cnn3cc(-c4ccc(OCCN5CCCCC5)cc4)cnc23)ccn1 [compound C, dorsomorphin]
number of kinases inhibited to a greater extent than AMPK (110 kinases): no less than 30 | number of kinases inhibited to a greater extent than AMPK (71 kinases): 9

maximal activation by MK-8722 [7, 8]: 6.7 fold | EC50 ([7]; without BAY-3827): 1.1 µM | maximal activation by MK-8722 ([7]; without BAY-3827): 11 fold
Compound: MK-8722
